PMC9060607 (RSC Advances, 2019)
Structures can show the parent of a compound that is named as a salt.

Assays:
[1] = test system: plasma esterases; experiment: Inhibition of CDD hydrolysis in dog plasma by esterase inhibitors; assay type: biochemical, beagle dog; settings: for % inhibition of CDD hydrolysis: CDD 1.5 μM, 37 °C, 15 min
[2] = test system: plasma CES; settings: rat plasma, inhibitor 10 mM; cited from earlier work
[3] = test system: plasma esterases; experiment: Inhibition of CDD hydrolysis in rat plasma by esterase inhibitors; assay type: biochemical; settings: for % inhibition of CDD hydrolysis: CDD 1.5 μM, 37 °C, 5 s
[4] = test system: plasma esterases; experiment: Inhibition of CDD hydrolysis in human plasma by esterase inhibitors; assay type: biochemical; settings: for % inhibition of CDD hydrolysis: CDD 1.5 μM, 37 °C, 5 min

inhibition of CDD hydrolysis (in words) ([3]; concentration not given)	Structure (SMILES)	% inhibition of CDD hydrolysis ([1]; inhibitor 0.1 mM) [%]	% inhibition of CDD hydrolysis ([1]; inhibitor 1 mM) [%]	% inhibition of CDD hydrolysis ([3]; inhibitor 0.1 mM) [%]	% inhibition of CDD hydrolysis ([3]; inhibitor 1 mM) [%]	% inhibition of CDD hydrolysis ([4]; inhibitor 0.1 mM) [%]	% inhibition of CDD hydrolysis ([4]; inhibitor 1 mM) [%]	inhibition of CDD hydrolysis (in words) ([1]; concentration not given)	inhibition of CDD hydrolysis (in words) ([4]; concentration not given)	also measured
	O=[N+]([O-])c1ccc(OP(=O)(O)Oc2ccc([N+](=O)[O-])cc2)cc1 [BNPP, Bis(4-nitrophenyl) phosphate]	16.6 ± 8.2	63.6 ± 1.8	83.0 ± 8.9	97.0 ± 7.7	<10	42.2 ± 6.7			effect on ex vivo hydrolysis of CDD [2]: inhibited; inhibition of CDD hydrolysis (in words) ([4]; inhibitor 1 mM): partial inhibition
did not prevent	O=C(O)c1cc(SSc2ccc([N+](=O)[O-])c(C(=O)O)c2)ccc1[N+](=O)[O-] [DTNB, 5,5′-dithiobis-2-nitrobenzoic acid]	<10	47.8 ± 0.83	<10	<10	<10	52.0 ± 1.5			inhibition of CDD hydrolysis (in words) ([1]; inhibitor 1 mM): moderate inhibition; inhibition of CDD hydrolysis (in words) ([4]; inhibitor 1 mM): moderate inhibition
did not prevent	O=C([O-])CN(CCN(CC(=O)[O-])CC(=O)O)CC(=O)O.[Na+].[Na+] [EDTA, Ethylenediaminetetraacetic acid disodium]							no inhibition	no inhibition	% inhibition of CDD hydrolysis ([1]; inhibitor 5 mM): <10%; % inhibition of CDD hydrolysis ([1]; inhibitor 10 mM): <10%; % inhibition of CDD hydrolysis ([3]; inhibitor 5 mM): <10%; % inhibition of CDD hydrolysis ([3]; inhibitor 10 mM): <10%; % inhibition of CDD hydrolysis ([4]; inhibitor 5 mM): <10%; % inhibition of CDD hydrolysis ([4]; inhibitor 10 mM): <10%
	O=C(O)CN(CCOCCOCCN(CC(=O)O)CC(=O)O)CC(=O)O [EGTA, ethyleneglycol-bis(2-aminoethylether)-tetraacetic acid]							fewer than those of the aforementioned esterase inhibitors	partially inhibited	% inhibition of CDD hydrolysis ([1]; inhibitor 5 mM): 17.3 ± 6.1%; % inhibition of CDD hydrolysis ([1]; inhibitor 10 mM): 19.9 ± 8.0%; % inhibition of CDD hydrolysis ([3]; inhibitor 5 mM): <10%; % inhibition of CDD hydrolysis ([3]; inhibitor 10 mM): <10%; % inhibition of CDD hydrolysis ([4]; inhibitor 5 mM): 23.2 ± 11.4%; % inhibition of CDD hydrolysis ([4]; inhibitor 10 mM): 26.5 ± 3.6%
did not prevent	CNC(=O)Oc1ccc2c(c1)[C@]1(C)CCN(C)[C@@H]1N2C [Eserine, eserine hemisulfate salt]							no inhibition	no inhibition	% inhibition of CDD hydrolysis ([1]; inhibitor 10 μM): <10%; % inhibition of CDD hydrolysis ([1]; inhibitor 100 μM): <10%; % inhibition of CDD hydrolysis ([3]; inhibitor 10 μM): <10%; % inhibition of CDD hydrolysis ([3]; inhibitor 100 μM): <10%; % inhibition of CDD hydrolysis ([4]; inhibitor 10 μM): <10%; % inhibition of CDD hydrolysis ([4]; inhibitor 100 μM): <10%
	CC(C)NP(=O)(NC(C)C)OP(=O)(NC(C)C)NC(C)C [Iso-OMPA, tetraisopropyl pyrophosphoramide]	16.9 ± 7.1	17.6 ± 6.7	99.5 ± 11.2	108.3 ± 5.2	<10	<10	fewer than those of the aforementioned esterase inhibitors	no inhibition	% inhibition of CDD hydrolysis ([3]; inhibitor 0.1 mM, listed as iso-OMPA): > 80%
	[F-].[Na+] [NaF, Sodium fluoride]							no inhibition	no inhibition	% inhibition of CDD hydrolysis ([1]; inhibitor 5 mM): <10%; % inhibition of CDD hydrolysis ([1]; inhibitor 10 mM): <10%; % inhibition of CDD hydrolysis ([3]; inhibitor 5 mM): <10%; inhibition of CDD hydrolysis (in words) ([3]; inhibitor 10 mM): partially prevented; % inhibition of CDD hydrolysis ([3]; inhibitor 10 mM): 24.4 ± 7.1%; % inhibition of CDD hydrolysis ([4]; inhibitor 5 mM): <10%; % inhibition of CDD hydrolysis ([4]; inhibitor 10 mM): <10%
	O=S(=O)(F)Cc1ccccc1 [PMSF, Phenylmethanesulfonyl fluoride]	<10	29.6 ± 5.3	<10	96.0 ± 9.2	<10	<10		no inhibition	effect on ex vivo hydrolysis of CDD [2]: inhibited
	Cl.NCCc1ccc(S(=O)(=O)F)cc1 [Pefabloc® SC, 4-(2-aminoethyl-)benzenesulphonylfloride hydrochloride]	<10	25.8 ± 3.1	19.4 ± 2.1	99.8 ± 7.9	<10	<10		no inhibition	

Structure (SMILES)	inhibition of CDD hydrolysis (in words) ([3]; concentration not given)	% inhibition of CDD hydrolysis ([1]; inhibitor 0.1 mM) [%]	% inhibition of CDD hydrolysis ([1]; inhibitor 1 mM) [%]	% inhibition of CDD hydrolysis ([3]; inhibitor 0.1 mM) [%]	% inhibition of CDD hydrolysis ([3]; inhibitor 1 mM) [%]	% inhibition of CDD hydrolysis ([4]; inhibitor 0.1 mM) [%]	% inhibition of CDD hydrolysis ([4]; inhibitor 1 mM) [%]	inhibition of CDD hydrolysis (in words) ([1]; concentration not given)	inhibition of CDD hydrolysis (in words) ([4]; concentration not given)	also measured
C=CC[N+](C)(C)c1ccc(CCC(=O)CCc2ccc([N+](C)(C)CC=C)cc2)cc1.[Br-].[Br-] [BW284c51, 1,5-bis(4-allyldimethylammoniumphenyl)pentan-3-one dibromide]	did not prevent							no inhibition	no inhibition	% inhibition of CDD hydrolysis ([1]; inhibitor 10 μM): <10%; % inhibition of CDD hydrolysis ([1]; inhibitor 100 μM): <10%; % inhibition of CDD hydrolysis ([3]; inhibitor 10 μM): <10%; % inhibition of CDD hydrolysis ([3]; inhibitor 100 μM): <10%; % inhibition of CDD hydrolysis ([4]; inhibitor 10 μM): <10%; % inhibition of CDD hydrolysis ([4]; inhibitor 100 μM): <10%
Cc1ccc(S(=O)(=O)N[C@@H](CCCCN)C(=O)CCl)cc1.Cl [TLCK, N-α-tosyl-L-lysine chloromethylketone hydrochloride]	did not prevent	<10	17.0 ± 10.3	<10	<10	<10	<10		no inhibition	
